Results on 4 compounds are retold here after paper PMC7996170, “Novel Method for Quantifying AhR-Ligand Binding Affinities Using Microscale Thermophoresis” (Biosensors, 2021).

Data set [1] concerns the target T1, purified AhR-ARNT complex (recombinant hAhR23–475 with mARNT85–465) (Homo sapiens, UniProt P35869).
T1 construct: encompassing the bHLH-PAS A-PAS B domains (amino acid residues 23 to 475); His6 (N, cleaved yes); FleB (Yersinia flagellin subunit, residues 54 to 332, UniProt A1JSQ5) expression tag followed by HRV 3C site (N, cleaved yes); made in house; host or cells: E. coli BL21(DE3)
Briefly: Radioligand saturation binding assay with [3H]TCDD on purified recombinant AhR-ARNT. As to conditions: 4 °C, 24 h. The procedure: Radioligand binding assays were performed as previously established. Briefly, for saturation experiments, 0.5 mg/mL of purified AhR-ARNT or ARNT protein was diluted in MDEG buffer (25 mM MOPS, 1 mM DTT, 1 mM EDTA, 10% glycerol, 20 mM molybdate, pH 7.5) and incubated with increasing concentrations of radioactively labeled [^3H]TCDD tracer. Reactions were supplemented with liver lysate of AhR-deficient mice (AhR^-/-, C57BL/6 background) to a final protein concentration of 5 mg/mL to reduce unspecific binding and adsorption of the tracer to plastic surfaces. Liver lysates were prepared in MDEG buffer by homogenization using the gentleMacs Dissociator (Miltenyi Biotec), followed by ultracentrifugation at 100,000× g and 4 °C for 1 h. Cytosolic fractions were collected, protein concentration determined by Bradford reaction (Protein Assay Kit, Pierce), and further diluted to a final protein concentration of 5 mg/mL in MDEG buffer. […] Following this, 150 μL of the supernatant was carefully transferred and radioactivity was measured in a liquid scintillation counter (Tri-Carb 3110TR, PerkinElmer). All samples were measured in triplicate. […] The specific binding was defined as the difference of radioactivity between the reactions supplemented with the recombinant protein and AhR-deficient (Ahr^-/-) mouse lysates. […]

Data set [2] addresses T2, recombinant AhR-ARNT complex (Homo sapiens, UniProt P35869).
T2 construct: encompassing the bHLH-PAS A-PAS B domains (amino acid residues 23 to 475); His6 (N, cleaved yes); FleB (Yersinia flagellin subunit, residues 54 to 332, UniProt A1JSQ5) expression tag followed by HRV 3C site (N, cleaved yes); made in house; host or cells: E. coli BL21(DE3)
Description: Label-free microscale thermophoresis (MST) ligand binding. (Microscale thermophoresis detects binding through changes in fluorescence in a small temperature gradient.)

A further data set concerns murine AhR. The settings on record: higher affinity of murine AhR than human AhR; cited from earlier work.
Data set [3] has as its target T2, recombinant AhR-ARNT complex. Description: Competition radioligand binding assay ([3H]TCDD displacement) on purified recombinant AhR-ARNT. As to conditions: for competition with [3H]TCDD (in words): 4 nM [3H]TCDD, increasing concentrations of unlabeled competitor. The procedure: Radioligand binding assays were performed as previously established. Briefly, for saturation experiments, 0.5 mg/mL of purified AhR-ARNT or ARNT protein was diluted in MDEG buffer (25 mM MOPS, 1 mM DTT, 1 mM EDTA, 10% glycerol, 20 mM molybdate, pH 7.5) and incubated with increasing concentrations of radioactively labeled [^3H]TCDD tracer. Reactions were supplemented with liver lysate of AhR-deficient mice (AhR^-/-, C57BL/6 background) to a final protein concentration of 5 mg/mL to reduce unspecific binding and adsorption of the tracer to plastic surfaces. Liver lysates were prepared in MDEG buffer by homogenization using the gentleMacs Dissociator (Miltenyi Biotec), followed by ultracentrifugation at 100,000× g and 4 °C for 1 h. Cytosolic fractions were collected, protein concentration determined by Bradford reaction (Protein Assay Kit, Pierce), and further diluted to a final protein concentration of 5 mg/mL in MDEG buffer. […] Subsequently, 30 μL of a Norit A charcoal suspension (100 mg/mL equilibrated in MDEG buffer) was added into each 200 µL of the reaction mixture. Samples were kept on ice for 15 min and centrifuged for another 15 min at 25,000× g and 4 °C. Following this, 150 μL of the supernatant was carefully transferred and radioactivity was measured in a liquid scintillation counter (Tri-Carb 3110TR, PerkinElmer). All samples were measured in triplicate. For competition assays, a constant concentration of [^3H]TCDD (4 nM final) was used, to which a serial dilution of unlabeled competitor molecule dissolved in DMSO was added in excess. All subsequent steps were carried out as described above. The specific binding was defined as the difference of radioactivity between the reactions supplemented with the recombinant protein and AhR-deficient (Ahr^-/-) mouse lysates. Analysis of the data and calculation of the binding constants Kd and receptor density Bmax were performed with GraphPad Prism 7 using a nonlinear regression fitting a saturation binding isotherm. For competition studies, the IC50 values were obtained by fitting a one-site competitive binding equation to the experimental data. Ki values were derived from IC50 using the Cheng–Prusoff equation [19].

The target of a further data set is T3, mARNT (Mus musculus, UniProt P53762, C256S/DEL274-297/DEL351-358).
T3 construct: Mouse ARNT (residues 85–465) was expressed as N-terminal His6-fusion protein; His6 (N); made in house; host or cells: E. coli BL21(DE3)
T3 sequence (P53762 with tags, fused parts or gaps C256S/DEL274-297/DEL351-358): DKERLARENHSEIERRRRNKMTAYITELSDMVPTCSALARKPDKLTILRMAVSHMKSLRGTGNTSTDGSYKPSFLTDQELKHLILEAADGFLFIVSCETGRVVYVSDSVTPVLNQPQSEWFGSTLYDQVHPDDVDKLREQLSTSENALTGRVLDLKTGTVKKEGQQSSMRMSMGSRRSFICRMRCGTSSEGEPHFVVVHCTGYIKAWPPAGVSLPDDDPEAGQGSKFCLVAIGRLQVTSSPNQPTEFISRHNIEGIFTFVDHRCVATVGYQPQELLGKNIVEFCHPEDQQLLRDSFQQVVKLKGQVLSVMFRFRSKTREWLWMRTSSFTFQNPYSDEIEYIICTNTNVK
Description: Label-free MST on mARNT alone. The class given is binding. As to conditions: Figure S3. The procedure: Microscale thermophoresis (MST) experiments were performed according to the manufacturer’s instructions (NanoTemper Technologies GmbH) using a Monolith NT.LabelFree. In brief, 250 nM of purified AhR-ARNT proteins were diluted in assay buffer (20 mM HEPES pH 8.0, 200 mM NaCl, 5% glycerol, 5 mM DTT, and 0.1% Pluronic F-127) and incubated for 5 min, in the presence of a serial dilution of the different ligands (ligand solubilized in DMSO at a final constant concentration of 2%). After incubation, samples were filled into NT.LabelFree Zero Background MST Premium coated capillaries (NanoTemper Technologies GmbH) and measurements were taken at a constant temperature of 22 °C. MST traces were collected with an LED excitation power of 20% and an MST laser power of 20% and 40%. The MO.Control Analysis software (NanoTemper) was used to analyze the interaction affinity and the dissociation constant (Kd) for each ligand using the Kd fit model. In short, changes in the thermophoretic movement were depicted as changes in the normalized fluorescence ratio before and after heating (ΔFnorm [‰]) and plotted as a function of the ligand concentration. The resulting binding curve is fitted by the software using the best fitting method to derive binding constants and thus the Kd.

The next data set addresses endogenous hAhR. Details: method as in PMID 2848187. The settings on record: endogenous hAhR in hepatocyte cell lysates; read-out: equilibrium dissociation constant (Kd); cited from earlier work.
For data set [4] the following is noted: cited from earlier work.

Read-outs that look alike come from different tables or passages of the source.

T2 sequence (P35869 23-475): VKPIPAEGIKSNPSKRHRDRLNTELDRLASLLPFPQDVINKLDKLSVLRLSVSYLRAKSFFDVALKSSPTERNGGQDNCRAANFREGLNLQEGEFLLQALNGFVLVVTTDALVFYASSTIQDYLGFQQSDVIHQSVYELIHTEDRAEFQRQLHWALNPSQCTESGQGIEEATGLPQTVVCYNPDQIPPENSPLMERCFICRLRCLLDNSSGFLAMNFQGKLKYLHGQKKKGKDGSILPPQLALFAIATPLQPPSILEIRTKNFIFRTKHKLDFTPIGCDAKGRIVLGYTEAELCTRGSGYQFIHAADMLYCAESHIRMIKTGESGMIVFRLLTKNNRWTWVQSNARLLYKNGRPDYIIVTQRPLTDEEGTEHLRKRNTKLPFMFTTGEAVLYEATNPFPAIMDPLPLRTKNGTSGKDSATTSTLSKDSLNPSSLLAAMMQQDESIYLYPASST
T2 sequence (P53762 with tags, fused parts or gaps C256S/DEL274-297/DEL351-358 partner): as the sequence (P53762 with tags, fused parts or gaps C256S/DEL274-297/DEL351-358) above
T1 sequence (P35869 23-475): as the sequence (P35869 23-475) above
T1 sequence (P53762 with tags, fused parts or gaps C256S/DEL274-297/DEL351-358 partner): as the sequence (P53762 with tags, fused parts or gaps C256S/DEL274-297/DEL351-358) above

As to `Clc1cc2c(cc1Cl)Oc1cc(Cl)c(Cl)cc1O2` [TCDD, 2,3,7,8-Tetrachlorodibenzo-p-dioxin], the “maximal binding capacity (Bmax)” value in data set [1] ([3H]TCDD saturation binding) was 60.3 ± 17.3 pmoles/mg protein. For the same compound, the Kd (commonly the constant that tells how readily two partners part at equilibrium) in data set [1] ([3H]TCDD tracer, 0.5 mg/mL protein, AhR-/- mouse liver lysate added) was 39 ± 20 nM; in data set [2] it was 139 ± 99 nM; at endogenous hAhR, 2.7 to 4.2 nM. Also, the “binding affinity of murine AhR relative to human AhR” value in the data set on murine AhR is reported as about 10 fold. The “competition with [3H]TCDD (in words)” value in data set [3] (24 h) is “only an initial competition”. Further, in data set [3] (increasing protein, constant [3H]TCDD, 48 h, Figure S2), the “displacement of [3H]TCDD from AhR-ARNT by unlabeled competitor (in words)” value is given as “displacement by unlabeled dioxin detectable”. For the same compound, the “ligand-induced differences in MST traces with mARNT alone (in words)” value on mARNT was “not when mARNT was used alone”. Also, the “solubility in water (in words)” value in data set [4] was “insolubility in water”.

Regarding `O=Cc1c2[nH]c3ccccc3c2cc2[nH]c3ccccc3c12` [FICZ, 6-Formylindolo [3,2-b] carbazole], the “competition with [3H]TCDD (in words)” value in data set [3] (24 h) is “failed to see competition”. In addition, the “stability in aqueous solution (in words)” value in data set [4] (tryptophan group) is “high instability”.

Take `Cc1ccccc1N=Nc1ccc(NC(=O)c2ccnn2C)c(C)c1` [CH-223191, 2-Methyl-2H-pyrazole-3-carboxylic acid (2-methyl-4-o-tolylazo-phenyl)-amide]: the equilibrium dissociation constant (Kd) in data set [2] (250 nM AhR-ARNT, 2% DMSO, 22 °C, label-free, read-out: Kd (MST)) was 496 ± 82 nM. Moreover, the Ki – broadly, the equilibrium dissociation constant of an inhibitor or competing ligand from its target – in data set [3] (displacement of 4 nM [3H]TCDD, 24 h, 4 °C, read-out: Ki (from IC50 by Cheng–Prusoff)) turned out to be 12200 nM.

Consider `Oc1cccc2nc3ccccc3nc12` [1-HP, 1-Hydroxyphenazine], for which the Kd in data set [2] came to 943 ± 176 nM. Moreover, the inhibition constant (Ki) in data set [3] is 9200 nM.
